Experimental data as given in patent publication US10988523B2, “Modified lipidated Relaxin B chain peptides and their therapeutic use” (Sanofi, priority 2018, dated 2021).
≈ marks a conversion by molar mass, not a printed value. Read-outs that look alike come from different tables or passages of the source. *1 amine or outer side, *2 acyl side, *3 side chain or, on linkers, in order; H or OH if unused. Where a SMILES comes first, the peptide text is derived from it. Side-chain parts run from the residue outwards. [ ]: non-standard residue; d: D form. The star is where a group is joined. PEG12 = NCCOCCOCCOCCOCCOCCOCCOCCOCCOCCOCCOCCOCCC(=O)O; γGlu = O=C(O)[C@H](CCC(=O)[*:2])N[*:1]; Stearoyl = CCCCCCCCCCCCCCCCCC(=O)*; Palmitoyl = CCCCCCCCCCCCCCCC(=O)*; αMeK = C[C@](N)(CCCCN)C(=O)O; Nle = CCCC[C@H](N)C(=O)O; AEEA = NCCOCCOCC(=O)O; Aib = CC(C)(N)C(=O)O

Test: Solubility testing of peptides in buffer
Type: physicochemical
[1] = acetate buffer, pH 4.5, read-out: Solubility Acetate buffer pH 4.5
[2] = phosphate buffer, pH 7.4, read-out: Solubility phosphate buffer pH 7.4
[3] = acetate buffer 50 mM pH 4.5, target solubility 10.0 mg/ml, read-out: Solubility Acetate buffer pH 4.5
[4] = phosphate buffer 50 mM pH 7.4, target solubility 10.0 mg/ml, read-out: Solubility phosphate buffer pH 7.4

| Compound | solubility [1] | solubility [2] | solubility (acetate buffer 50 mM pH 4.5, target solubility 15.0 mg/ml, read-out: Solubility Acetate buffer pH 4.5) | solubility [3] | solubility [4] |
| --- | --- | --- | --- | --- | --- |
| CCCCCCCCCCCCCCCCCC(=O)N[C@@H](CCC(=O)N[C@@H](CCC(=O)N[C@@H](CCC(=O)NCCCC[C@H](NC(=O)CCOCCOCCOCCOCCOCCOCCOCCOCCOCCOCCOCCOCCNC(=O)[C@H](CCCCNC(C)=O)NC(=O)[C@H](CCCCN)NC(=O)[C@H](CCCNC(=N)N)NC(=O)C(C)(C)NC(=O)[C@H](CO)NC(=O)[C@H](Cc1c[nH]c2ccccc12)NC(=O)[C@@H](NC(=O)[C@H](CO)NC(=O)[C@H](CCCC)NC(=O)CNC(=O)[C@H](CCC(=O)O)NC(=O)C(C)(C)NC(=O)C(C)(C)NC(=O)[C@@H](NC(=O)[C@H](CCCCNC(C)=O)NC(=O)[C@H](C)NC(=O)[C@H](CCCNC(=N)N)NC(=O)[C@@H](NC(=O)[C@H](CCCCN)NC(=O)[C@H](CCC(=O)O)NC(=O)[C@H](CCCNC(=N)N)NC(=O)CNC(=O)[C@H](CCC(=O)O)NC(=O)[C@H](CC(C)C)NC(C)=O)C(C)C)[C@@H](C)CC)[C@@H](C)O)C(N)=O)C(=O)O)C(=O)O)C(=O)O [compound 33] (Ac-LEGREKVRAK(Ac)I[Aib][Aib]EG[Nle]STWS[Aib]RKK(Ac)[PEG12]K([γGlu-γGlu-γGlu-Stearoyl])-NH2) | 5400 µg/mL (≈ 1280 µM) | 5400 µg/mL (≈ 1280 µM) | – | – | – |
| CCCCCCCCCCCCCCCC(=O)N[C@@H](CCC(=O)N[C@@H](CCC(=O)N[C@@H](CCC(=O)NCCOCCOCC(=O)NCCOCCOCC(=O)NCCCC[C@H](NC(=O)[C@H](CCCCN)NC(=O)[C@H](CCCNC(=N)N)NC(=O)C(C)(C)NC(=O)[C@H](CO)NC(=O)[C@H](Cc1c[nH]c2ccccc12)NC(=O)[C@@H](NC(=O)[C@H](CO)NC(=O)[C@H](CCCC)NC(=O)CNC(=O)[C@H](CCC(=O)O)NC(=O)C(C)(C)NC(=O)C(C)(C)NC(=O)[C@@H](NC(=O)[C@H](CCC(N)=O)NC(=O)[C@H](C)NC(=O)[C@H](CCCNC(=N)N)NC(=O)[C@@H](NC(=O)[C@H](CCCCN)NC(=O)[C@H](CCC(=O)O)NC(=O)[C@H](CCCNC(=N)N)NC(=O)CNC(=O)[C@H](CCC(=O)O)NC(=O)[C@H](CC(C)C)NC(C)=O)C(C)C)[C@@H](C)CC)[C@@H](C)O)C(N)=O)C(=O)O)C(=O)O)C(=O)O [compound 58] (Ac-LEGREKVRAQI[Aib][Aib]EG[Nle]STWS[Aib]RKK([AEEA-AEEA-γGlu-γGlu-γGlu-Palmitoyl])-NH2) | 5700 µg/mL (≈ 1550 µM) | 5700 µg/mL (≈ 1550 µM) | – | – | – |
| CCCCCCCCCCCCCCCCCC(=O)N[C@@H](CCC(=O)N[C@@H](CCC(=O)N[C@@H](CCC(=O)NCCOCCOCC(=O)NCCOCCOCC(=O)NCCOCCOCC(=O)NCCCC[C@H](NC(=O)[C@H](CCCCNC(C)=O)NC(=O)[C@H](CCCCN)NC(=O)[C@H](CCCNC(=N)N)NC(=O)C(C)(C)NC(=O)[C@H](CO)NC(=O)[C@H](Cc1c[nH]c2ccccc12)NC(=O)[C@@H](NC(=O)[C@H](CO)NC(=O)[C@H](CCCC)NC(=O)CNC(=O)[C@H](CCC(=O)O)NC(=O)C(C)(C)NC(=O)C(C)(C)NC(=O)[C@@H](NC(=O)[C@H](CCCCNC(C)=O)NC(=O)[C@H](C)NC(=O)[C@H](CCCNC(=N)N)NC(=O)[C@@H](NC(=O)[C@H](CCCCN)NC(=O)[C@H](CCC(=O)O)NC(=O)[C@H](CCCNC(=N)N)NC(=O)CNC(=O)[C@H](CCC(=O)O)NC(=O)[C@H](CC(C)C)NC(C)=O)C(C)C)[C@@H](C)CC)[C@@H](C)O)C(N)=O)C(=O)O)C(=O)O)C(=O)O [compound 81] (Ac-LEGREKVRAK(Ac)I[Aib][Aib]EG[Nle]STWS[Aib]RKK(Ac)K([AEEA-AEEA-AEEA-γGlu-γGlu-γGlu-Stearoyl])-NH2) | – | – | 11900 µg/mL (≈ 2920 µM) | – | – |
| CCCCCCCCCCCCCCCC(=O)N[C@@H](CCC(=O)N[C@@H](CCC(=O)N[C@@H](CCC(=O)N[C@@H](CCC(=O)NCCCC[C@H](NC(=O)COCCOCCNC(=O)COCCOCCNC(=O)COCCOCCNC(=O)COCCOCCNC(=O)[C@H](CCCCNC(C)=O)NC(=O)[C@H](C)NC(=O)[C@H](CCCNC(=N)N)NC(=O)[C@](C)(CCCCN)NC(=O)[C@H](CO)NC(=O)[C@H](Cc1ccccc1)NC(=O)[C@@H](NC(=O)[C@H](CO)NC(=O)[C@H](CCCC)NC(=O)CNC(=O)[C@H](CCC(=O)O)NC(=O)C(C)(C)NC(=O)C(C)(C)NC(=O)[C@@H](NC(=O)[C@H](CCCCNC(C)=O)NC(=O)[C@H](C)NC(=O)[C@H](CCCNC(=N)N)NC(=O)[C@@H](NC(=O)[C@H](CCCCN)NC(=O)[C@H](CCC(=O)O)NC(=O)[C@H](CCCNC(=N)N)NC(=O)CNC(=O)[C@H](CCC(=O)O)NC(=O)[C@H](CC(C)C)NC(C)=O)C(C)C)[C@@H](C)CC)[C@@H](C)O)C(N)=O)C(=O)O)C(=O)O)C(=O)O)C(=O)O [compound 150] (Ac-LEGREKVRAK(Ac)I[Aib][Aib]EG[Nle]STFS[αMeK]RAK(Ac)[AEEA][AEEA][AEEA][AEEA]K([γGlu-γGlu-γGlu-γGlu-Palmitoyl])-NH2) | – | – | – | 1500 µg/mL (≈ 351 µM) | > 10000 µg/mL |
| CCCCCCCCCCCCCCCC(=O)N[C@@H](CCC(=O)N[C@@H](CCC(=O)N[C@@H](CCC(=O)N[C@@H](CCC(=O)NCCCC[C@H](NC(=O)COCCOCCNC(=O)COCCOCCNC(=O)COCCOCCNC(=O)COCCOCCNC(=O)[C@H](CCCCNC(C)=O)NC(=O)[C@H](C)NC(=O)[C@H](CCCNC(=N)N)NC(=O)[C@](C)(CCCCN)NC(=O)[C@H](CO)NC(=O)[C@H](Cc1ccccc1)NC(=O)[C@@H](NC(=O)[C@H](CO)NC(=O)[C@H](CCC(N)=O)NC(=O)CNC(=O)[C@H](CCC(=O)O)NC(=O)C(C)(C)NC(=O)C(C)(C)NC(=O)[C@@H](NC(=O)[C@H](CCCCNC(C)=O)NC(=O)[C@H](C)NC(=O)[C@H](CCCNC(=N)N)NC(=O)[C@@H](NC(=O)[C@H](CCCCN)NC(=O)[C@H](CCC(=O)O)NC(=O)[C@H](CCCNC(=N)N)NC(=O)CNC(=O)[C@H](CCC(=O)O)NC(=O)[C@H](CC(C)C)NC(C)=O)C(C)C)[C@@H](C)CC)[C@@H](C)O)C(N)=O)C(=O)O)C(=O)O)C(=O)O)C(=O)O [compound 170] (Ac-LEGREKVRAK(Ac)I[Aib][Aib]EGQSTFS[αMeK]RAK(Ac)[AEEA][AEEA][AEEA][AEEA]K([γGlu-γGlu-γGlu-γGlu-Palmitoyl])-NH2) | – | – | – | 9800 µg/mL (≈ 2280 µM) | > 10000 µg/mL |
